Reference: US20100227923A1, “PREVENTIVE/REMEDY FOR URINARY CALCULOSIS” (GODO SHUSEI CO., LTD., priority 2006, published 2010)
Read-outs that look alike come from different tables or passages of the source.

Legend:
[1] = Blood level of rats after intravenous administration; format: in vivo, Wistar rats
Description: After fasting overnight, 10- to 11-week old Wistar male rats were anesthetized with Nembutal, and sodium L-arabonate (0.5 mmol/kg) was administered through the femoral vein of each rat. Blood was sampled through the carotid artery as time elapsed, whereby the L-arabonic acid level was determined. Blood collection was performed by means of a heparin-treated capillary before administration and 5 min, 15 min, 30 min, and 1 hour after administration.
(§1) The percent urine excretion (24 hours) was determined in the following manner. To each of the 5- to 6-week-old male Wistar rats which had been fasted overnight, sodium L-arabonate (0.5 mmol/kg) was administered through the tail vein. The rats were placed in a metabolic cage where urine was collected for 24 hours. After removal of protein from the blood samples and urine samples, the blood L-arabonic acid level of each sample was determined through HPLC. Instead of L-arabonic acid, sodium D-gluconate was administered to the rats of the control group. The blood sodium D-gluconate level was determined by means of an F-kit (product of Roche Diagnostic).

[2] = Percent urine excretion (24 hours) of rats after intravenous administration; format: in vivo, Wistar rats; details: for Percent urine excretion (24 hours): rats, 0.5 mmol/kg i.v., av. ± standard error
Description: as §1

[3] = Non-Patent Documents 4 to 6; cited from earlier work
[4] = Non-Patent Documents 4 to 6; cited from earlier work; remark: listed apart in the source
mice = assay: Single-dose peroral safety experiment of mice (LD50); format: in vivo

With `O=C([O-])[C@H](O)[C@@H](O)[C@H](O)[C@H](O)CO.[Na+]` [Sodium D-gluconate, sodium D-gluconate] the “Blood D-gluconic acid level” value ([1]; rats, 0.5 mmol/kg i.v.) was “considerably low”, the “Metabolism in the body” value [2] was “a large portion thereof is thought to be metabolized and consumed in the body” and the “Percent urine excretion (24 hours)” value [2] was 9.8 ± 9.76%. The “Percent urine excretion (24 hours)” value ([2]; listed as sodium D-gluconate) was “about 10%”.

For `O=C([O-])[C@H](O)[C@@H](O)[C@@H](O)CO.[Na+]` [Sodium L-arabonate, sodium L-arabonate], the “Time at which blood level decreased to about the half value” ([1]; rat, in vivo, iv) was 22 min.

In the case of `O=C(O)[C@H](O)[C@@H](O)[C@H](O)[C@H](O)CO` [D-gluconic acid], the “Dissolving of calcium phosphate calculi and magnesium phosphate calculi” value [3] is listed as “dissolve” and the “Dissolving of calcium oxalate calculi” value [4] is listed as “not to dissolve”.

In the case of `O=C(O)[C@H](O)[C@@H](O)[C@@H](O)CO` [L-Arabonic acid, L-arabonic acid], the LD50 (mice) is reported as “about 10 g/kg”, the “Metabolism in the body” value ([2]; rat, in vivo) is reported as “not metabolized in the body and is immediately excreted to urine” and the “Portion of the absorbed L-arabonic acid excreted to urine” value ([2]; rat, in vivo) is reported as ~100%.
